Test results from ChEMBL document CHEMBL1137667, “Pyrrolidine dithiocarbamate and diethyldithiocarbamate are active against growing and nongrowing persister Mycobacterium tuberculosis” (2007).
Values after ≈ are worked out from the molar mass of the structure shown. Active and inactive are the calls of the source. The rule behind the calls is not given here.

What was measured:
[1] = system: Mycobacterium tuberculosis; assay: Antimicrobial activity against 3 weeks old culture of Mycobacterium tuberculosis H37Ra assessed as colony forming unit in aerobic condition at 10.3 ug/ml for 3 hrs; assay type: functional
[2] = system: Mycobacterium tuberculosis; assay: Antimicrobial activity against 3 weeks old culture of Mycobacterium tuberculosis H37Ra assessed as colony forming unit in hypoxic condition at 10.3 ug/ml for 3 hrs; assay type: functional
[3] = system: Mycobacterium tuberculosis; assay: Antimicrobial activity against Mycobacterium tuberculosis H37Rv; assay type: functional
[4] = system: Mycobacterium tuberculosis; assay: Antimicrobial activity against 3 weeks old culture of Mycobacterium tuberculosis H37Rv assessed as 1:16 serum inhibitory titers treated with blood from 25 mg/kg, po dosed Swiss mouse collected after 1 hrs; assay type: functional, organism-based; set-up: dose 25 mg/kg
[5] = system: Mycobacterium tuberculosis; assay: Antimicrobial activity against Mycobacterium tuberculosis H37Rv assessed as drug concentration required to kill 99% of the inoculum; assay type: functional
[6] = system: Mycolicibacterium smegmatis; assay: Antimicrobial activity against Mycobacterium smegmatis mc26; assay type: functional
[7] = system: Mycobacterium tuberculosis; assay: Antimicrobial activity against 3 weeks old culture of Mycobacterium tuberculosis H37Ra assessed as colony forming unit in aerobic condition at 3.3 ug/ml for 3 hrs; assay type: functional
[8] = system: Mycobacterium tuberculosis; assay: Antimicrobial activity against 2 months old culture of Mycobacterium tuberculosis H37Ra assessed as colony forming unit at 3.3 ug/ml for 3 days at pH 7; assay type: functional
[9] = system: Mycobacterium tuberculosis; assay: Antimicrobial activity against 3 weeks old culture of Mycobacterium tuberculosis H37Ra assessed as colony forming unit in hypoxic condition at 3.3 ug/ml for 3 hrs; assay type: functional
[10] = system: Mycobacterium tuberculosis; assay: Antimicrobial activity against 3 weeks old culture of Mycobacterium tuberculosis H37Ra assessed as colony forming unit at 3.3 ug/ml for 3 days at pH 7; assay type: functional
Escherichia coli = assay: Antimicrobial activity against Escherichia coli DH5alpha; assay type: functional
[11] = system: Mycobacterium tuberculosis; assay: Antimicrobial activity against 3 weeks old culture of Mycobacterium tuberculosis H37Ra assessed as colony forming unit at 3.3 ug/ml for 3 days at pH 5.5; assay type: functional
[12] = system: Mycobacterium tuberculosis; assay: Antimicrobial activity against 1 month old culture of Mycobacterium tuberculosis H37Ra assessed as colony forming unit at 10 ug/ml for 3 days at pH 5.5; assay type: functional
[13] = system: Mycobacterium tuberculosis; assay: Antimicrobial activity against 2 months old culture of Mycobacterium tuberculosis H37Ra assessed as colony forming unit at 3.3 ug/ml for 3 days at pH 5.5; assay type: functional
[14] = system: Mycobacterium tuberculosis; assay: Antimicrobial activity against 2 months old culture of Mycobacterium tuberculosis H37Ra assessed as colony forming unit at 5 ug/ml for 3 days at pH 5.5; assay type: functional
[15] = system: Mycobacterium tuberculosis; assay: Antimicrobial activity against 3 weeks old culture of Mycobacterium tuberculosis H37Ra assessed as colony forming unit in aerobic condition at 2 ug/ml for 3 hrs; assay type: functional
[16] = system: Mycobacterium tuberculosis; assay: Antimicrobial activity against 2 months old culture of Mycobacterium tuberculosis H37Ra assessed as colony forming unit at 10 ug/ml for 3 days at pH 5.5; assay type: functional
[17] = system: Mycobacterium tuberculosis; assay: Antimicrobial activity against 3 weeks old culture of Mycobacterium tuberculosis H37Ra assessed as colony forming unit in hypoxic condition at 2 ug/ml for 3 hrs; assay type: functional
[18] = system: Mycobacterium tuberculosis; assay: Antimicrobial activity against 3 weeks old culture of Mycobacterium tuberculosis H37Ra assessed as colony forming unit at 4.5 ug/ml for 3 days at pH 7; assay type: functional
[19] = system: Mycobacterium tuberculosis; assay: Antimicrobial activity against 2 months old culture of Mycobacterium tuberculosis H37Ra assessed as colony forming unit at 4.5 ug/ml for 3 days at pH 7; assay type: functional
[20] = system: Mycobacterium tuberculosis; assay: Antimicrobial activity against 3 weeks old culture of Mycobacterium tuberculosis H37Ra assessed as colony forming unit in aerobic condition at 4.5 ug/ml for 3 hrs; assay type: functional
[21] = system: Mycobacterium tuberculosis; assay: Antimicrobial activity against Mycobacterium tuberculosis infected in human monocytes; assay type: functional
[22] = system: Mycobacterium tuberculosis; assay: Antimicrobial activity against 3 weeks old culture of Mycobacterium tuberculosis H37Rv assessed as 1:4 serum inhibitory titers treated with blood from 100 mg/kg, po dosed Swiss mouse collected after 2 hrs; assay type: functional, organism-based; set-up: dose 100 mg/kg
[23] = system: Mycobacterium tuberculosis; assay: Antimicrobial activity against 3 weeks old culture of Mycobacterium tuberculosis H37Ra assessed as colony forming unit in hypoxic condition at 4.5 ug/ml for 3 hrs; assay type: functional
[24] = system: Mycobacterium tuberculosis; assay: Antimicrobial activity against 2 months old culture of Mycobacterium tuberculosis H37Ra assessed as colony forming unit at 4.5 ug/ml for 3 days at pH 5.5; assay type: functional
[25] = system: Mycobacterium tuberculosis; assay: Antimicrobial activity against 3 weeks old culture of Mycobacterium tuberculosis H37Rv assessed as 1:2 serum inhibitory titers treated with blood from 100 mg/kg, po dosed Swiss mouse collected after 2 hrs; assay type: functional, organism-based; set-up: dose 100 mg/kg
[26] = system: Mycobacterium tuberculosis; assay: Antimicrobial activity against 3 weeks old culture of Mycobacterium tuberculosis H37Ra assessed as colony forming unit at 4.5 ug/ml for 3 days at pH 5.5; assay type: functional
[27] = system: Mycobacterium tuberculosis; assay: Antimicrobial activity against 2 weeks old culture of Mycobacterium tuberculosis H37Ra assessed as colony forming unit at 100 ug/ml for 3 days at pH 5.5; assay type: functional
[28] = system: Mycobacterium tuberculosis; assay: Antimicrobial activity against 2 months old culture of Mycobacterium tuberculosis H37Ra assessed as colony forming unit at 100 ug/ml for 3 days at pH 5.5; assay type: functional

With `C(=NC1CCCCC1)=NC1CCCCC1` [DICYCLOHEXYLCARBODIIMIDE] the log10CFU/ml [1] was 7.43 and the log10CFU/ml [2] was 7.37.

`CCN(CC)C(=S)SSC(=S)N(CC)CC` [DISULFIRAM] gave an MIC [3] of 8 µg/mL (≈ 27 µM).

In the case of `NNC(=O)c1ccncc1` [ISONIAZID], the Activity [4] was “Active”, the MBC [3] was 0.12 µg/mL (≈ 0.875 µM) and the MIC [3] was 0.06 µg/mL (≈ 0.438 µM). For the same compound, the Activity [5] was 0.25 µg/mL.

In the case of `S=C(S)N1CCCC1` [PYRROLIDINE DITHIOCARBAMATE], the MIC [6] was 16 µg/mL (≈ 109 µM), the MBC [3] was 0.5 µg/mL (≈ 3.4 µM) and the MIC [3] was 0.125 µg/mL (≈ 0.849 µM). The log10CFU/ml [7] was 6.19, the log10CFU/ml [8] was 0.94 and the log10CFU/ml [9] was 7.1. For the same compound, the log10CFU/ml [10] was 2.65, the MIC (Escherichia coli) was 64 µg/mL (≈ 435 µM) and the log10CFU/ml [11] was 0.89. For the same compound, the log10CFU/ml [12] was 0.06, the log10CFU/ml [13] was 0.13 and the log10CFU/ml [14] was 0.42. For the same compound, the Activity [5] was 0.5 µg/mL.

`CO[C@H]1/C=C/O[C@@]2(C)Oc3c(C)c(O)c4c(O)c(c(/C=N/N5CCN(C)CC5)c(O)c4c3C2=O)NC(=O)/C(C)=C\C=C\[C@H](C)[C@H](O)[C@@H](C)[C@@H](O)[C@@H](C)[C@H](OC(C)=O)[C@@H]1C` [RIFAMPIN] was tested, and the log10CFU/ml [15] was 4.63, the log10CFU/ml [16] was 1.32 and the log10CFU/ml [17] was 6.36.

Work on `CCN(CC)C(=S)[S-].[Na+]` [DITIOCARB SODIUM] yielded a log10CFU/ml [18] of 2.07, a log10CFU/ml [19] of 1.73 and a log10CFU/ml [20] of 6.03. For the same compound, the MIC [21] was 1 µg/mL, the Activity [22] was “Active” and the MBC [3] was 8 µg/mL. It also gave an MIC [3] of 4 µg/mL, a log10CFU/ml [23] of 7.22 and a log10CFU/ml [24] of 3.18. For the same compound, the Activity [25] was “Active”, the log10CFU/ml [12] was 0.14 and the log10CFU/ml [14] was 0.96. For the same compound, the log10CFU/ml [26] was 1.28.

Work on `NC(=O)c1cnccn1` [PYRAZINAMIDE] yielded a log10CFU/ml [27] of 0.26 and a log10CFU/ml [28] of 0.08.
